Test results from US20230055657A1, “COMBINATION TREATMENT OF LIVER DISEASES USING INTEGRIN INHIBITORS” (NOVARTIS AG, priority 2019, published 2023).
“Also recorded” adds a separate entry of the source.

Experiments:
CDAHFD NASH mouse model = CDAHFD NASH mouse model (prophylactic, therapeutic and 10-week studies); type: in vivo
Protocol: CDAHFD injury is a rodent model of NASH displaying liver fat accumulation, inflammation, and fibrosis (Matsumoto 2013). Three types of studies were performed: 1) prophylactic, Compound 1 in an abbreviated 3-week CDAHFD model; 2) therapeutic, Compound 1 for 6 weeks in the 11- to 12-week CDAHFD model; and 3) Compound 1 for 4 weeks in a 10-week CDAHFD model.
Compound 1 was tested therapeutically in 11- to 12-week CDAHFD injury studies at medium, high and highest doses across 3 independent studies.
Although pan-αv inhibition with CWHM12 reduced pSMAD and OHP levels, selective αvβ1 inhibition was sufficient for antifibrotic activity.

[1] = system: human cirrhotic NASH precision cut liver slices; assay: Profibrotic gene expression and fibrosis biomarkers in precision cut liver slices; type: cell-based
Protocol: The ability of Compound 1 to inhibit the expression of profibrotic genes and decrease biomarkers of fibrosis was measured in precision cut liver slices generated using cirrhotic liver tissues from NASH patient explants and from rodent models of liver fibrosis and NASH.
Data are mean +/−standard deviation from the 5 cirrhotic NASH patients. DMSO was used as the solvent and utilized at a constant concentration (0.1%) across the different groups. […] was used as a positive control.

[2] = system: murine CCl4 model of liver fibrosis; assay: 3-week murine CCl4 model of liver fibrosis; type: in vivo, mouse
Protocol: Antifibrotic activity of Compound 1 was established in an abbreviated, 3-week, murine CCl4 model of liver fibrosis. CCl4 is a hepatotoxin that when injected into mice results in liver fibrosis (Constandinou 2003). Compound 1 was dosed during the final week of injury.

healthy volunteers = assay: First-in-human study of safety, tolerability, PK and PD; type: in vivo; conditions: single and multiple ascending dose, thus far
Excerpt: Part A (Single Ascending Dose Study) Part A of the study was a first-in-human, randomized, double-blind, placebo-controlled, parallel-group, single ascending dose study of the safety, tolerability, and PK of Compound 1 in a maximum of 50 healthy male and female (non-childbearing potential) participants. Forty participants will be enrolled in up to 5 sequential cohorts.
Part B (Multiple Ascending Dose Study) Part B of the study is on-going and was initiated after the first 2 cohorts in Part A of the study had been completed. The doses in Part B were determined from Part A of the study and were not higher than the highest dose that was administered in Part A of the study.
Part B of the study is a randomized, double-blind, placebo-controlled, parallel-group, multiple ascending dose study of the PK, PD, safety, and tolerability of Compound 1 administered for 7 days in a maximum of 40 healthy male and female (non-childbearing potential) participants.

[3] = therapeutic, 11- to 12-week, high and highest doses

SMILES	reduction of OHP concentrations (CDAHFD NASH mouse model; 10-week CDAHFD study) [%]	reduction of pSMAD3 levels (CDAHFD NASH mouse model; 10-week CDAHFD study) [%]	TIMP1 gene expression (in words) ([1]; 5 cirrhotic NASH patient explants, after two days of treatment)	COL1A1 gene expression (in words) ([1]; fibrotic liver tissue from 5 patients with NASH)	reduction of level of FBN-C in culture media ([1]; significant) [%]	hepatic Col1α1, Col1α1, and Col3α1 expression ([2]; all doses)	levels of pSMAD3/SMAD3 in the liver ([2]; all doses, dosed during final week of injury)	antifibrotic activity ([2]; liver fibrosis (CCl4))	antifibrotic activity (CDAHFD NASH mouse model; NASH (CDAHFD))	expression of Ehhadh (CDAHFD NASH mouse model; prophylactic, 3-week, high dose, both studies)	gene expression of collagens (CDAHFD NASH mouse model; prophylactic, 3-week, high dose, one of the studies)	collagen area (histological analysis) (CDAHFD NASH mouse model; therapeutic, 11- to 12-week)	composite fibrosis score (second harmonic generation imaging): quantity and quality of collagen fibers (CDAHFD NASH mouse model; therapeutic, 11- to 12-week)	gene expression of Acox1 and Ehhadh (CDAHFD NASH mouse model; therapeutic, 11- to 12-week)	collagen gene expression (Col1α1 and Col3α1) (CDAHFD NASH mouse model; [3])	gene expression of profibrotic markers Ctgf, Mmp-2 and Timp1 (CDAHFD NASH mouse model; [3])	tolerability (healthy volunteers)
CC(C)(C)c1cc(Br)cc([C@H](CC(=O)O)NC(=O)CNC(=O)c2cc(O)cc(NC3=NCC(O)CN3)c2)c1 (stereo partly drawn) [CWHM12, (3S)-N-[3-hydroxy-5-[(1,4,5,6-tetrahydro-5-hydroxy-2-pyrimidinyl)amino]benzoyl]glycyl-3-[3-bromo-5-(1,1-dimethylethyl)phenyl]β-alanine, reference compound]	30	61															
CC1(C(=O)N[C@@H](CCCCCCCc2ccc3c(n2)NCCC3)C(=O)O)CCOCC1 [Compound 1, (S)-2-(4-methyltetrahydro-2H-pyran-4-carboxamido)-9-(5,6,7,8-tetrahydro-1,8-naphthyridin-2-yl)nonanoic acid]			reduced; also recorded: decreased expression; also recorded: reduces expression	decreased expression; also recorded: reduces expression	26	significant reduction; also recorded: significantly reduced	significantly reduced	potent and dose-dependent antifibrotic activity	effective antifibrotic agent; also recorded: potent and dose-dependent antifibrotic activity	significantly elevated	Significantly reduced	significant reduction	significant reduction	significantly increased	significantly reduced	significantly reduced	well tolerated
